Experimental data: patent publication US20200045965A1, “METHOD FOR THE CONTROL OF PLANT BACTERIAL DISEASES USING CARBOXAMIDE DERIVATIVES” (BAYER CROPSCIENCE AKTIENGESELLSCHAFT, priority 2016, published 2020)

Experiments:
Xanthomonas spp. = experiment: Field trial in vivo against bacterial leaf streak on spring wheat, foliar spray; set-up: species or system Xanthomonas translucens
Procedure: EXAMPLE 2: TEST IN VIVO AGAINST XANTHOMONAS TRANSLUCENS (WHEAT)
Field trials were conducted to test the efficacy of N-(5-chloro-2-isopropylbenzyl)-N-cyclopropyl-3-(difluoromethyl)-5-fluoro-1-methyl-1H-pyrazole-4-carboxamide (compound A5) in combination with the commercial standard Prosaro (a 1:1 combination of Prothioconazole and Tebuconazole) against bacterial leaf streak caused by Xanthomonas spp. when sprayed on leaves. A control without compound A5 was tested in same conditions.
The field trials were randomized, had 4 replicates and plot size was 15.24 m^2. Fertilization, herbicide- and insecticide applications were carried out according to the local agricultural practice.
N-(5-chloro-2-isopropylbenzyl)-N-cyclopropyl-3-(difluoromethyl)-5-fluoro-1-methyl-1H-pyrazole-4-carboxamide was applied as SC 280 formulation in 3 rates in combination with the commercial standard Prosaro. Test was conducted in a Spring wheat which was treated in growth stage EC 61 with one foliar application.
22 days after application the efficacy of the tested products against the bacterial leaf streak caused by Xanthomonas spp. was visually assessed. The effect was evaluated as preservation of remaining green leaves (GRNLVS) in a scale from 1-6 (meaning 1 best and 6 worst green leaf preservation)

Pseudomonas syringae = experiment: Field trials in vivo against Pseudomonas syringae on coffee tree, foliar spray
Procedure: EXAMPLE 1: TEST IN VIVO AGAINST PSEUDOMONAS SYRINGAE (COFFEE)
Two field trials were conducted to find out the efficacy of N-(5-chloro-2-isopropylbenzyl)-N-cyclopropyl-3-(difluoromethyl)-5-fluoro-1-methyl-1H-pyrazole-4-carboxamide (compound A5) against bacteria (Pseudomonas syringae) when sprayed on leaves of coffee tree.
The field trials were randomized, had 3 replicates and plot size was 20 m. The product was applied as an EC 100—formulation in a spray sequence consisting of three foliar applications, beginning in the growth stage EC59. The sprays were done with an interval of approximately 4 weeks (between treatments). About 3 and 11 weeks after the third application the efficacy of the compound against the bacterial pathogen Pseudomonas syringae was visually assessed as incidence of infested leaf rosettes or branches per plot (in %). Then the incidence values were converted into control (% Abbott).

[1] = log P by HPLC on reversed-phase column (EEC Directive 79/831 Annex V.A8); format: physicochemical; settings: HPLC C18, 40° C., 0.1% aqueous formic acid and acetonitrile
Procedure: Table 1 provides the log P and NMR data (^1H) of compounds A1 to A20.
In table 1, the log P values were determined in accordance with EEC Directive 79/831 Annex V.A8 by HPLC (High Performance Liquid Chromatography) on a reversed-phase column (C 18), using the method described below:
Temperature: 40° C.; Mobile phases: 0.1% aqueous formic acid and acetonitrile; linear gradient from 10% acetonitrile to 90% acetonitrile.
Calibration was carried out using unbranched alkan-2-ones (comprising 3 to 16 carbon atoms) with known log P values (determination of the log P values by the retention times using linear interpolation between two successive alkanones). lambda-max-values were determined using UV-spectra from 200 nm to 400 nm and the peak values of the chromatographic signals.

CC(C)c1ccc(Cl)cc1CN(C(=O)c1c(C(F)F)nn(C)c1F)C1CC1 [Compound A5, N-(5-chloro-2-isopropylbenzyl)-N-cyclopropyl-3-(difluoromethyl)-5-fluoro-1-methyl-1H-pyrazole-4-carboxamide]
suppressing bacterial leaf streak caused by Xanthomonas spp. (conclusion in words) (Xanthomonas spp.): proves the efficiency | effect on bacterial disease caused by Pseudomonas syringae in coffee (conclusion in words) (Pseudomonas syringae; based on the two field trials): suppresses the bacterial disease | ABBOTT (%) leaf rosette 21 DA3 (Pseudomonas syringae; coffee, first trial (Table 1), 75 g a.i./ha, 21 days after third application): 39.2% | ABBOTT (%) branch 74 DA3 (Pseudomonas syringae; coffee, first trial (Table 1), 75 g a.i./ha, 74 days after third application): 45% | LEAF ROSETTE INCIDENCE (%) 21 DA3 (Pseudomonas syringae; coffee, first trial (Table 1), 75 g a.i./ha, EC 100, three foliar applications, 21 days after third application, untreated 12.2): 7.4% | ABBOTT (%) leaf rosette 20 DA3 (Pseudomonas syringae; coffee, second trial (Table 2), 75 g a.i./ha, 20 days after third application): 65.2% | LEAF ROSETTE INCIDENCE (%) 20 DA3 (Pseudomonas syringae; coffee, second trial (Table 2), 75 g a.i./ha, 20 days after third application, untreated 3.5): 1.2%

N-cyclopropyl-3-(difluoromethyl)-5-fluoro-N-(2-isopropylbenzyl)-1-methyl-1H-pyrazole-4-carbothio-amide [Compound A20]
logP [1]: 4.36
